From patent US20260023070A1, “OPTOGENETIC ALPHA-SYNUCLEIN AGGREGATION SYSTEM-BASED COMPOUND SCREENING PLATFORM IN PD-hiPSC-mDA NEURONS” (The Johns Hopkins University, priority 2022, published 2026)

Legend:
[1] = tested on: mouse primary neurons treated with α-syn PFF; experiment: α-syn PFF model in mouse primary neurons (TX-insoluble pathologic α-syn); type: cell-based
Protocol: To validate the effects of these two compounds on the OASIS-independent model, α-syn PFF were treated with mouse primary neurons and non-OASIS-human PD hiPSC-derived mDA neurons with CDC 021 and BAG 956.

opto-α-syn-MOs = experiment: Autophagy in opto-α-syn-MOs kept in dark after blue light illumination; type: cell-based, human; settings: treatment only during dark condition after blue light illumination for six days
Protocol: Because autophagy can be activated by the inhibition of PI 3-kinase (PI3K) or the PDK1 pathway, it was tested whether treatment with BAG 956 can induce the autophagic flux to decrease α-syn aggregates in opto-α-syn mDA neurons and MOs.

α-syn PFF injected mice = experiment: In vivo intrastriatal α-syn PFF mouse model, oral BAG 956 (behaviour, histology, biochemistry); settings: short-term: two months at 2 mg/kg or one month at 10 mg/kg after intrastriatal α-syn PFF injection
[2] = tested on: opto-α-syn PD hiPSC-derived mDA neurons; experiment: Light-induced α-syn aggregation and neurotoxicity in opto-α-syn PD hiPSC-derived mDA neurons; type: cell-based, human; settings: blue light 7 days; compared to DMSO control; significant at 1 and 10 nM CDC, 10 and 100 nM BAG
Protocol: Whether these potential hit compounds can inhibit α-syn aggregation and rescue aggregation-induced neuronal toxicity was tested on PD hiPSC-derived mDA neurons. The top 5 ranked small compounds in FIGURE SE were selected and these compounds to were used to treat opto-α-syn PD hiPSC-derived mDA neurons at three different concentrations (1 nM, 10 nM, 100 nM) with blue light stimulation. […] Overall, the two compounds were finally selected among the potential hit drugs from our novel opto-α-syn neuronal cell model-based primary screening (FIG. 11D), and they considerably rescued neuronal cell death from aggregation-induced TH^+ mDA neuron-selective toxicity in PD-iPSC derived neurons. To identify possible molecules involved in this compound-mediated recovery of TH^+ mDA neurons, RNA-sequencing (RNA-seq) analysis was performed with four different samples (dark condition with DMSO, blue light stimulation with DMSO, blue light stimulation with BAG treatment, and blue light stimulation with CDC treatment). To find BAG- or CDC-responsive genes, differentially expressed genes (DEGs) of DMSO-treated samples upon blue light stimulation were first extracted, and then the DEGs were filtered with criteria of which became non-DEGs in response to CDC or BAG treatment. […]
The effect of 5 selected compounds on opto-α-syn-expressing PD hiPSC-derived mDA neurons was evaluated. […]

**Q.** What does the source list for `Cc1nc2cnc3ccc(C#Cc4cccnc4)cc3c2n1-c1ccc(C(C)(C)C#N)cc1` [BAG 956]?
**A.** pathologic α-syn in the Triton X-100 (TX)-insoluble fraction [1]: significantly reduced; LC3+ puncta and LC3+/5G4+ co-localized dots (opto-α-syn-MOs): consistent; pathologic pS129-α-syn immunoreactivity in TH neurons of the ventral midbrain (α-syn PFF injected mice): significantly reduced; survival rate of TH+ mDA neurons [2]: significant increase
